Consider one molecule from patent US20250041216A1, “Methotrexate Composition” (Rosemont Pharmaceuticals Ltd., priority 2012, published 2025).

This data set in a line: Stability studies of example 1 formulation at different pH and buffer strength, visual precipitate (Table 3). The data set is classed as physicochemical. Conditions: pH values below 6.0, over time. As for the experimental part:
Batches were prepared at various pHs in the range 5.6-6.0 and were prepared at ½, 1/10th and 1/20th the original buffer strength of example 1 (i.e. the citric acid monohydrate and disodium hydrogen phosphate dihydrate buffer system). The original buffer strength was taken from a citrate-phosphate buffer table (http://microscopy.berkeley.edu/Resources/instruction/buffers.html).
The stability studies were undertaken using the example 1 formulation but using either a citrate-phosphate buffer system at half the strength (i.e. 43 mmol) or 1/10th of the strength (i.e. 8.7 mmol) compared to that of example 1. The formulations were adjusted to 5 different pH values; 5.6, 5.7, 5.8, 5.9 and 6.0. One set of formulations were stored at 5° C. and one set of formulations were stored at 25° C. for each buffer strength and each pH value for the duration of the study. The study took place over a 6-month time period.

Each structure is given as a SMILES string.

Regarding `CN(Cc1cnc2nc(N)nc(N)c2n1)c1ccc(C(=O)N[C@@H](CCC(=O)O)C(=O)O)cc1` [Methotrexate], the “Precipitation out of solution” value was “precipitate out of solution over time”.
